Literature values in patent US7989405B2, “Prevention of microbial growth in metal working fluids” (Illinois Tool Works Inc., priority 2001, dated 2011).

What was measured:
Fusarium moniliforme = conditions: Fungal: Fusarium moniliforme
Saccharomyces cerevisiae = conditions: Fungal: Saccharomyces cerevisiae
Aspergillus niger = conditions: Fungal: Aspergillus niger
Pseudomonas aeruginosa = conditions: Bacterial: Pseudomonas aeruginosa
Enterobacter aerogenes = conditions: Bacterial: Enterobacter aerogenes
Staphylococcus aureus = conditions: Bacterial: Staphylococcus aureus
Escherischia coli = conditions: Bacterial: Escherischia coli

## CCC12COCN1COC2 [Bioban CS-1246, 7a-ethyldihydro-1H,3H,5H-oxazolo(3,4-c)oxazole]
Fusarium moniliforme
  MIC: 125-250 parts per million
Saccharomyces cerevisiae
  MIC: 16-33 parts per million
Aspergillus niger
  MIC: 65-125 parts per million
As supplied
  irritation of eyes and skin: irritating to eyes and skin
  mutagenicity: non-mutagenic
  sensitisation: not a sensitising agent
  toxicity by inhalation and skin contact: harmful by inhalation and in contact with the skin
At typical use dilutions
  hazard: no hazard
Pseudomonas aeruginosa
  MIC: 800-850 parts per million
Enterobacter aerogenes
  MIC: 250-300 parts per million
Staphylococcus aureus
  MIC: 200-250 parts per million
Escherischia coli
  MIC: 450-500 parts per million
